Reference: patent US11453669B2, “Polycyclic pyridone derivative” (Shionogi & Co., Ltd., priority 2018, dated 2022)
Read-outs that look alike come from different tables or passages of the source.

How the values were obtained:
HIV = assay: Anti-HIV activity (MT-4 cells, MTT); format: cell-based; conditions: Human immunodeficiency virus 1, MT4, 96 h, read-out: EC50_nM (50% HIV inhibitory concentration)
Description: Serial dilutions of a test sample were prepared in a 96-well microplate (50 μL/well). 2.5×10^5 cells/mL of an MT-4 cell suspension was dispensed at 100 μL/well to the plate containing the test sample. Then, an HIV virus solution was dispensed at 50 μL/well. The plate was mixed with a plate mixer and cultured for 4 days in a CO2 incubator. An MTT (3-(4,5-dimethylthiazol-2-yl)-2,5-diphenyltetrazolium bromide) solution was dispensed at 30 μL/well. The plate was reacted for 1 hour in a CO2 incubator. 150 μL of the supernatant was removed from each well so as not to take up the cells. 150 μL of a cell lysis solution was added to each well and well mixed with a plate mixer until the cells were completely lysed. The absorbance of the mixed plate was measured at two wavelengths of 560 nm and 690 nm using a microplate reader.

[1] = test system: HIV mutant strain 1 (E138K/G140S/Q148H/N155H); format: cell-based; conditions: FC=EC50 of the mutant strain/EC50 of the wild strain, HeLa-CD4 cells
Description: (§1) Serial dilutions of a test sample were prepared in a 96-well microplate (50 μL/well). 2.5×10^5 cells/mL of a HeLa-CD4 cell suspension was dispensed at 100 μL/well to the plate containing the test sample. Then, an HIV virus solution (wild strain and mutant strain) was dispensed at 50 μL/well. The plate was mixed with a plate mixer and cultured for 3 days in a CO2 incubator. The culture supernatant in each well was removed by suction. A cell lysis buffer in a reporter assay kit was dispensed at 100 μL/well, and the plate was frozen in a freezer (−80° C.). The plate frozen in a freezer was thawed at room temperature, then mixed with a plate mixer, and centrifuged at 1,200 rpm for 5 minutes. The supernatant of each well was dispensed at 20 μL/well to a 96-well microplate (BLACK). A chemiluminescent in the reporter assay kit reagent was dispensed at 100 μL/well and reacted at room temperature for approximately 1 hour. Then, luminescence intensity was measured using MicroBeta TRILUX.

[2] = test system: HIV mutant strain 2 (E92Q/E138T/G140S/Q148H); format: cell-based; conditions: FC=EC50 of the mutant strain/EC50 of the wild strain, HeLa-CD4 cells
Description: as §1

[3] = format: in vitro ADME; conditions: human, 30 min, 0.5 μmol/L, pH 7.4
Description: Using commercially available pooled human liver microsomes, a compound of the present invention was reacted for a constant time, and a remaining rate was calculated by comparing a reacted sample and an unreacted sample, thereby, a degree at which the compound of the present invention was metabolized in liver was assessed.
A reaction was performed (oxidative reaction) at 37° C. for 0 minute or 30 minutes in the presence of 1 mmol/L NADPH in 0.2 mL of a buffer solution (50 mmol/L Tris-HCl pH 7.4, 150 mmol/L potassium chloride, 10 mmol/L magnesium chloride) containing 0.5 mg protein/mL of human liver microsomes. After the reaction, 50 μL of the reaction solution was added to 100 μL of a solution of methanol/acetonitrile=1/1 (v/v), and the mixture was mixed and centrifuged at 3000 rpm for 15 minutes. The compound of the present invention in the centrifugation supernatant was quantified by LC/MS/MS or solid-phase extraction (SPE)/MS. The amount of the compound of the present invention remaining after the reaction was calculated with the amount of the compound at 0 minutes of the reaction defined as 100%.

[4] = target: T1, Voltage gated sodium channel (Nav1.5 channel) encoded by SCN5A gene (Homo sapiens, UniProt Q14524); assay: Nav test (QPatch whole cell patch clamp); format: cell-based; conditions: HEK cells expressing Nav1.5, applied 5 minutes or more, room temperature
T1 construct: expressed in transfected cells; host or cells: HEK cells
Description: A cell was retained at a membrane potential of −100 mV by whole cell patch clamp method using a fully automated patch clamp system (QPatch; Sophion Bioscience A/S), and INa induced by depolarization pulse stimulation at −10 mV for 20 ms was recorded. […] The extracellular solution in which the medium and the compound of the present invention had been dissolved at each objective concentration was applied to the cell for 5 minutes or more under conditions of room temperature.

[5] = Clearance evaluation test (rat, intravenous); format: in vivo; conditions: plasma, 1 umol/kg, rats, intravenous 1 μmol/kg; for half-life: read-out: elimination half-life (t½) (converted); for clearance: read-out: total body clearance (CLtot)
Description: Experimental Material and Method
(1) Animals used: rats were used.
(2) Rearing conditions: the rats were allowed to freely take solid feed and sterilized tap water.
(3) Dose and grouping setting: a given dose was intravenously administered. Groups were set as follows:
Intravenous administration: 1 μmol/kg (n=2)
(4) Preparation of dosing solution: the test sample was solubilized using a solvent of dimethyl sulfoxide/propylene glycol=1/1 and administered.
(5) Administration method: the test sample was administered to the tail vein through a syringe with an injection needle.
(6) Evaluation item: blood was collected over time, and the concentration of the compound of the present invention in plasma was measured using LC/MS/MS.
(7) Statistical analysis: total body clearance (CLtot) and elimination half-life (t½) were calculated as to change in the concentration of the compound of the present invention in plasma by the moment analysis method.

T1 sequence (Q14524 whole entry): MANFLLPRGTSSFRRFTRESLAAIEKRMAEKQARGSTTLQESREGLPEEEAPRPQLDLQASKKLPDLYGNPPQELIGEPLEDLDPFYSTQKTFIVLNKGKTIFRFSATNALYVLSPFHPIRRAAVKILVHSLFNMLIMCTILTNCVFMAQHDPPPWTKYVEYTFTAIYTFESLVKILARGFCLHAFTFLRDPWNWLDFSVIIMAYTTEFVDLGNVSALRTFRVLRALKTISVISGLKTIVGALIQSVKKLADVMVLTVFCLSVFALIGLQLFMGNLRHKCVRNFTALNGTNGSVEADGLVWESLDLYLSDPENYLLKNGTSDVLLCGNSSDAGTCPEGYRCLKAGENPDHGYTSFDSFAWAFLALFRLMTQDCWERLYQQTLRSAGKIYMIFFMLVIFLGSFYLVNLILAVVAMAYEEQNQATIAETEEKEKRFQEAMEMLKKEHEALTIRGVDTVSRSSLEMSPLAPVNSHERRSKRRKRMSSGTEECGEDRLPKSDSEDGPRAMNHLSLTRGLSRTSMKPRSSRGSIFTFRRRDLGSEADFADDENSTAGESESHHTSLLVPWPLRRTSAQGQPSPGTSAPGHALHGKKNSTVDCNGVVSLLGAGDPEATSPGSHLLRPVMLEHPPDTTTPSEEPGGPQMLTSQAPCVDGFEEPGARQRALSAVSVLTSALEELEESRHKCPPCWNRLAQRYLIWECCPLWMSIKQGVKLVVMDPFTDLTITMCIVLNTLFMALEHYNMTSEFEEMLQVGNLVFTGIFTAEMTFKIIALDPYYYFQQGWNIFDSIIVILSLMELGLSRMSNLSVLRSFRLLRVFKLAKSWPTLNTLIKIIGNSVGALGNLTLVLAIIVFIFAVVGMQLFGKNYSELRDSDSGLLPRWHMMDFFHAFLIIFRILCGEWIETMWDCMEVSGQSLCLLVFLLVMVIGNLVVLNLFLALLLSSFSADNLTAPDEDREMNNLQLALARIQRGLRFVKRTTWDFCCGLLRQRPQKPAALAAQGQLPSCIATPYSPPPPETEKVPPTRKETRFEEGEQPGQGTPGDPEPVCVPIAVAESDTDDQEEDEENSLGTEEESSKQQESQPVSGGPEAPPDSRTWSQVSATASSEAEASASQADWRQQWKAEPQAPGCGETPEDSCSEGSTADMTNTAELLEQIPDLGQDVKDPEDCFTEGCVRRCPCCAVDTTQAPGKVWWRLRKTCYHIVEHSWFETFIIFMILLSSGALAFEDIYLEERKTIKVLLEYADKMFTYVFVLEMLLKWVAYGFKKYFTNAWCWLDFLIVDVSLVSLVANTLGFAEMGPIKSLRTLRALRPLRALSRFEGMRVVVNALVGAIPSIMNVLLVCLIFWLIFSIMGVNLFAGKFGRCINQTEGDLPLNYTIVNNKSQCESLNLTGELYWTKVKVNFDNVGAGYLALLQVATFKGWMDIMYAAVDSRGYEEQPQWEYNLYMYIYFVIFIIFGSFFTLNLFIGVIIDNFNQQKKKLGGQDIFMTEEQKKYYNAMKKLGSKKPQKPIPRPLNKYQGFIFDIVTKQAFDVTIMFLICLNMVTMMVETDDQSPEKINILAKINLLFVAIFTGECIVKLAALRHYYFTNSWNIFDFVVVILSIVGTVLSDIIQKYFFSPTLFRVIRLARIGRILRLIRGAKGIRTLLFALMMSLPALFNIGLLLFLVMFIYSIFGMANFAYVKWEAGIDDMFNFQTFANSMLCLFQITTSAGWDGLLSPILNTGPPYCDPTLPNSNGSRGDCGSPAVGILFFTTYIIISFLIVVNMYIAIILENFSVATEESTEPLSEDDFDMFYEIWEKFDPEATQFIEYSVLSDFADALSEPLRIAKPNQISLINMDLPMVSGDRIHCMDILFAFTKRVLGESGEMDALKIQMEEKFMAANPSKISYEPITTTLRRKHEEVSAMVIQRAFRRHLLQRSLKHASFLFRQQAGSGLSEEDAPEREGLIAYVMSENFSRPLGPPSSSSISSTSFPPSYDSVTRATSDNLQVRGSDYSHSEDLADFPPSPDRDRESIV

Row | EC50 (HIV; MT-4 cells, cultured 4 days, MTT) | Structure (SMILES) | EC50 (HIV) | FC (fold change) for mutant strain 1 [1] | FC (fold change) for mutant strain 2 [2] | residual rate [3] | ratio of maximum peak current (INa) with compound relative to medium [4] | half-life [5] | clearance [5]
1 |  | CCN1C(=O)c2c(O)c(=O)c(-c3nnc(Cc4cc(F)c(F)cc4F)s3)cn2N2CCCC[C@@H]12 [Compound I-012] | 4800 pM | 23 | 46 | 72.2 | 97.1% |  | 
2 |  | CN1C(=O)c2c(O)c(=O)c(-c3nnc(Cc4ccc(F)cc4F)s3)cn2N2CCCC[C@@H]12 [II-003] | 620 pM | 8.8 | 12 | 109 | 96.7% |  | 
3 | 32000 pM | CCN1C(=O)c2c(O)c(=O)c(-c3cnn(Cc4ncc(Cl)cc4F)c3)cn2N2CCCC[C@@H]12 [II-013] |  |  |  |  |  | 35.4 h | 1.36 mL/h/kg
4 |  | CCN1C(=O)c2c(O)c(=O)c(-c3nnc(Cc4c(F)cc(F)cc4F)s3)cn2N2CCOC[C@@H]12 [II-018] | 520 pM | 15 | 20 | 95.3 | 109% |  | 
5 |  | CCN1C(=O)c2c(O)c(=O)c(-c3nnc(Cc4ccc(F)cc4F)s3)cn2N2[C@H](COC)CC[C@@H]12 [II-024] | 130 pM | 8.2 | 11 | 96.5 | 89.3% | 23.6 h | 2.18 mL/h/kg
6 |  | CCN1C(=O)c2c(O)c(=O)c(-c3nnc(Cc4ccc(F)cc4F)s3)cn2N2CC[C@@H](C)C[C@@H]12 [II-033] |  |  |  |  | 90.7% |  | 
7 |  | CCN1C(=O)c2c(O)c(=O)c(-c3nnc(Cc4ccc(F)cc4)s3)cn2N2[C@H](COC)CC[C@@H]12 [II-038] | 130 pM | 20 | 31 | 92.4 | 86.2% |  | 
8 |  | C[C@H]1CC[C@H]2N(C)C(=O)c3c(O)c(=O)c(-c4nnc(Cc5ccc(F)cc5F)s4)cn3N2C1 [II-041] | 250 pM | 5.8 | 8 | 95.5 | 78.8% |  | 
9 |  | CCN1C(=O)c2c(O)c(=O)c(-c3nnc(Cc4c(F)cc(F)cc4F)s3)cn2N2C[C@@H]3CC[C@@H](O3)[C@@H]12 [II-046] | 600 pM | 17 | 20 | 97.2 |  |  | 
10 |  | CCN1C(=O)c2c(O)c(=O)c(-c3nnc(Cc4ccc(F)cc4)s3)cn2N2C[C@@H]3CC[C@@H](O3)[C@@H]12 [II-050] | 660 pM | 20 | 29 | 103 |  |  | 
11 |  | CCN1C(=O)c2c(O)c(=O)c(-c3nnc(Cc4c(F)cc(F)cc4F)s3)cn2N2C[C@@H]3CC[C@@H](C3)[C@@H]12 [II-052] | 660 pM | 2.3 | 3.5 | 83.4 |  |  | 
12 |  | CC(C)N1C(=O)c2c(O)c(=O)c(-c3nnc(Cc4c(F)cc(F)cc4F)s3)cn2N2C[C@@H]3CC[C@@H](O3)[C@@H]12 [II-054] | 1000 pM | 3.5 | 8.2 | 98.8 |  |  | 
13 |  | CN1C(=O)c2c(O)c(=O)c(-c3nnc(Cc4ccc(F)cc4F)s3)cn2N2C[C@@H]3CC[C@@H](C3)[C@@H]12 [II-055] | 140 pM | 15 | 11 | 93.9 |  |  | 
14 |  | CCN1C(=O)c2c(O)c(=O)c(-c3nnc(Cc4c(F)cc(F)cc4F)s3)cn2N2CC[C@@H](C)C[C@@H]12 [II-057] | 1700 pM | 3 | 3.6 | 82.5 |  |  | 
15 |  | C[C@@H]1CCN2[C@@H](C1)N(C)C(=O)c1c(O)c(=O)c(-c3nnc(Cc4c(F)cc(F)cc4F)s3)cn12 [II-058] | 690 pM | 6.1 | 6.1 | 94.2 |  |  | 
16 |  | CCN1C(=O)c2c(O)c(=O)c(-c3nnc(Cc4c(F)cc(F)cc4F)s3)cn2N2CC[C@H](C)C[C@@H]12 [II-061] | 1800 pM | 5.1 | 7.3 | 91.5 |  |  | 
17 |  | CCN1C(=O)c2c(O)c(=O)c(-c3nnc(Cc4cc(F)c(F)cc4F)s3)cn2N2C[C@@H]3CC[C@@H](C3)[C@@H]12 [II-062] | 5200 pM | 8.3 | 6.6 | 71.7 |  |  | 
18 |  | CN1C(=O)c2c(O)c(=O)c(-c3nnc(Cc4c(F)cc(F)cc4F)s3)cn2N2C[C@@H]3CC[C@@H](C3)[C@@H]12 [II-063] | 600 pM | 14 | 12 | 96.5 |  |  | 
19 |  | CCN1C(=O)c2c(O)c(=O)c(-c3nnc(Cc4ccc(F)cc4F)s3)cn2N2C[C@@H](C)CC[C@@H]12 [II-067] | 300 pM | 5.2 | 5.1 | 93 |  |  | 
20 |  | CCN1C(=O)c2c(O)c(=O)c(-c3nnc(Cc4c(F)cc(F)cc4F)s3)cn2N2C[C@@H](C)CC[C@@H]12 [II-068] | 1200 pM | 3.5 | 4.6 | 91.3 |  |  | 
21 |  | CN1C(=O)c2c(O)c(=O)c(-c3nnc(Cc4cccc(Cl)c4F)s3)cn2N2CCOC[C@@H]12 [II-069] | 240 pM | 30 | 25 | 102 |  |  | 
